# From patent publication US6403594B1, “Benzopyran derivatives” (Recordati, S.A. Chemical and Pharmaceutical Company, priority 1999, dated 2002)
# How the values were obtained:
# [1] = biological target: T1, 5HT1A-serotoninergic receptor (Homo sapiens, UniProt P08908); assay: Radioligand binding, cloned 5-HT1A-serotoninergic receptor in HeLa membranes ([3H]8-OH-DPAT); design: expressed in transfected cells; host or cells: HeLa; conditions: cloned human 5-HT1A receptor in HeLa membranes, mean Ki, read-out: Affinity for 5-HT1A receptor, cloned receptors (Ki)
# T1 sequence (P08908 1-422): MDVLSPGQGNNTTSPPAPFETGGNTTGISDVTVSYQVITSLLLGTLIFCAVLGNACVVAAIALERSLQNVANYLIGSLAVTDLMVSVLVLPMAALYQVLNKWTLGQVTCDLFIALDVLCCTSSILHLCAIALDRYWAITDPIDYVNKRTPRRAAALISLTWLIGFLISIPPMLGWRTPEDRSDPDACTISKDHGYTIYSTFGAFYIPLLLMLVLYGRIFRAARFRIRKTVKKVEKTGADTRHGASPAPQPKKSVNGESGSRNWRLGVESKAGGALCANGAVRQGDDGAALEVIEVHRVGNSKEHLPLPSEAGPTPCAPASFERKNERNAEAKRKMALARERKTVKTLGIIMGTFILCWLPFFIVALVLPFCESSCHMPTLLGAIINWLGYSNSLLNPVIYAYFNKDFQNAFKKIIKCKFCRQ
# Method: HeLa cells were grown as monolayers in Dulbecco's Modified Eagle medium (DMEM) supplemented with 10% foetal calf serum and gentamicin (100 μg/mL), 5% CO2, at 37° C. The cells were detached from the growth flask at 95% confluence by a cell scraper and were lysed in ice-cold Tris-5-mM and EDTA-5-mM buffer (pH 7.4). The homogenates were centrifuged at 40000×g×20 minutes and the membranes were resuspended in a small volume of ice-cold buffer containing Tris 5 mM and EDTA 5 mM (pH 7.4), and immediately frozen and stored at −70° C. until use.
# Non-specific binding was determined in the presence of 10 μM 5-HT. The incubation was stopped by addition of ice-cold Tris buffer and rapid filtration through 0.2% polyethyleneimine-pretreated Schleicher & Schuell filters.
# (§1) Data were expressed as mean Ki.
# [2] = biological target: T2, α1d-adrenoceptor (recombinant) (Homo sapiens, UniProt P25100); assay: Radioligand binding, cloned α1d-adrenoceptor ([3H]prazosin); conditions: read-out: Affinity for recombinant α1d-adrenoceptor, cloned receptors (Ki)
# T2 sequence (P25100 1-572): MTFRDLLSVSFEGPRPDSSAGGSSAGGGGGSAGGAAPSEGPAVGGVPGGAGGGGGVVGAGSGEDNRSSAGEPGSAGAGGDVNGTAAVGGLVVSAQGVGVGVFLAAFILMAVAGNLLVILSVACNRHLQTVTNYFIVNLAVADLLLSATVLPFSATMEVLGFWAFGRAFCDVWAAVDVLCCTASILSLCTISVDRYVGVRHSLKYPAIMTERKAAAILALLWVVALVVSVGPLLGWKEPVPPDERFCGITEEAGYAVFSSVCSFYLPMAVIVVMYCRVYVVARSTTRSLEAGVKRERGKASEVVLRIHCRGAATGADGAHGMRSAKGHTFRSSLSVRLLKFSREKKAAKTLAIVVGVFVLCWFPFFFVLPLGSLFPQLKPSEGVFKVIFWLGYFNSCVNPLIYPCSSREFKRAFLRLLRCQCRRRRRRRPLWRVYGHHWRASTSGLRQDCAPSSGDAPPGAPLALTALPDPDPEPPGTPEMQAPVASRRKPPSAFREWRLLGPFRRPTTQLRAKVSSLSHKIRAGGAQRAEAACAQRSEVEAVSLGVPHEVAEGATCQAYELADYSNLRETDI
# Method: (§2) Determination of affinity for cloned subtypes of α1-adrenoceptor subtypes was performed in membranes from cells transfected by electroporation with DNA expressing the genes encoding each α1-adrenoceptor subtype.
# (§3) Non-specific binding was determined in the presence of 10 μM phentolamine.
# (§4) Incubation was stopped by addition of ice-cold Tris buffer and rapid filtration through 0.2% polyethyleneimine-pretreated Schleicher & Schuell GF52 filters.
# as §1
# [3] = biological target: T3, α1b-adrenoceptor (recombinant) (Homo sapiens, UniProt P35368); assay: Radioligand binding, cloned α1b-adrenoceptor ([3H]prazosin); conditions: read-out: Affinity for recombinant α1b-adrenoceptor, cloned receptors (Ki)
# T3 construct: expressed in transfected cells
# T3 sequence (P35368 1-520): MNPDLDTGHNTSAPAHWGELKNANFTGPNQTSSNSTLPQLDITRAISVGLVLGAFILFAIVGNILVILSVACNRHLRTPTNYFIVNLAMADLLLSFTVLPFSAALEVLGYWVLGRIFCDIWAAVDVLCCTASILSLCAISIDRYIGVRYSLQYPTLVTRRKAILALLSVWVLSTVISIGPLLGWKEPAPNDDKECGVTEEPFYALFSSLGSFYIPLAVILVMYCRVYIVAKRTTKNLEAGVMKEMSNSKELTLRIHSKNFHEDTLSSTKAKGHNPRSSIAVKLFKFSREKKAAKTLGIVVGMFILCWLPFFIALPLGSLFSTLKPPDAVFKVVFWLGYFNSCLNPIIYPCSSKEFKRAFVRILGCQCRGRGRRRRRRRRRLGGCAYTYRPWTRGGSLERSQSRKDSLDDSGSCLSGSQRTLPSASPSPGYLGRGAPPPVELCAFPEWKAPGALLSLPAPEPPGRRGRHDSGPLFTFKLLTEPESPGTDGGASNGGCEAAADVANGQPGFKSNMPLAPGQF
# Method: as §2, §3, §4, §1
# [4] = biological target: T4, α1a-adrenoceptor (recombinant) (Homo sapiens, UniProt P35348); assay: Radioligand binding, cloned α1a-adrenoceptor ([3H]prazosin); conditions: read-out: Affinity for recombinant α1a-adrenoceptor, cloned receptors (Ki)
# T4 construct: expressed in transfected cells
# T4 sequence (P35348 1-466): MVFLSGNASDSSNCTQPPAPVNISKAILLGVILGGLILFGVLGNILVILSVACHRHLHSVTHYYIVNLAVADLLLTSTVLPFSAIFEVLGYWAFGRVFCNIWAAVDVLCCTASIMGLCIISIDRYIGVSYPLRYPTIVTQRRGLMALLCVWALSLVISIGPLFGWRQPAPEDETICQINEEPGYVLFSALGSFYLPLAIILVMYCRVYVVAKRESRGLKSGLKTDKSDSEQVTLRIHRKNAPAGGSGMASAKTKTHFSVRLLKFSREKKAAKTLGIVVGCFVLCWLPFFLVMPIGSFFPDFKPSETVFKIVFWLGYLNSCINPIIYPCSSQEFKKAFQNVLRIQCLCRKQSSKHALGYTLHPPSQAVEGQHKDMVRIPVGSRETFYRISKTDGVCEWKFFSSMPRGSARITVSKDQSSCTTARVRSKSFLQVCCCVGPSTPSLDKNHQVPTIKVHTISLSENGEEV
# Method: as §2, §3, §4, §1
# α1L adrenoceptor = biological target: T5, α1L adrenoceptor (Oryctolagus cuniculus, UniProt O02824); assay: Functional antagonism of noradrenaline-induced contractions of rabbit aorta pretreated with chloroethylclonidine; format: biochemical; conditions: NA-induced contractions of rabbit aorta pretreated with chloroethylclonidine
# T5 sequence (O02824 1-466): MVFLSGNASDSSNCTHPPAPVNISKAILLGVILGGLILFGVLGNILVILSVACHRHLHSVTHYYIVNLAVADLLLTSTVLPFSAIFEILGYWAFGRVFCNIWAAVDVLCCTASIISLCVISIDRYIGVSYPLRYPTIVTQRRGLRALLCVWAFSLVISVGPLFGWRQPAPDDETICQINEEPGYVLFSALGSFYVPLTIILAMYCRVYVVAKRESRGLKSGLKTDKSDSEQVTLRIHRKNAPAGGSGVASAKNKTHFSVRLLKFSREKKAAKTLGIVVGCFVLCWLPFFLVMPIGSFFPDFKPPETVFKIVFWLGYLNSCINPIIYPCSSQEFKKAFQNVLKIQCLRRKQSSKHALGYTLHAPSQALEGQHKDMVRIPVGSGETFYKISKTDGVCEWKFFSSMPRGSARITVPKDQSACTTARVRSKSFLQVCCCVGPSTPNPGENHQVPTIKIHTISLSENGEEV
# Method: Adult male New Zealand rabbits were sacrificed by cervical dislocation. The aorta was removed, placed in Krebs-Henseleit buffer and dissected free of adhering tissue. […] Desmethylimipramine (0.1 μm) and corticosterone (1 μM) to block neuronal and extraneuronal uptake of NA, (±)-propranol (1 μM) to block β adrenoceptors and yohimbine (0.1 μM) to block α2 adrenoceptors, were added to the buffer.
# The preparations were allowed to equilibrate for 60 minutes and then primed every thirty minutes with 10 μM NA for three times. The aortic rings were then incubated with the alkylating agent chloroethylclonidine (5×10^−5 M) for 30 minutes and then washed extensively three times (in 0.5 hours) before constructing the NA-concentration/response curve. After washout of NA and re-equilibration of the tissue (45 minutes), the drug to be tested was added and, after 30 minutes, a second NA-cumulative-concentration/response curve constructed.
# Each antagonist concentration was tested using 2-3 aortic rings from different rabbits.
# Dose ratios (i.e., the ratio between the concentrations of NA required to produce half-maximal response in the presence and in the absence of the test antagonist) were calculated for each concentration of the compounds. The logarithm of these dose ratio-1 was plotted against the logarithm of the compound concentrations (Schild plot) to evaluate the affinity constant Kb.
# When only one or two concentrations of the test compounds were utilised, the apparent Kb value was calculated using the formula: Kb=[B]/(DOSE RATIO-1), where B is the antagonist concentration.
Compound,Ki [1] [nM],Ki [2] [nM],Ki [3] [nM],Ki [4] [nM],"Functional affinity for the α1L adrenoceptor subtype, pKb (α1L adrenoceptor)"
"COc1ccc(Cl)cc1N1CCN(CCCNC(=O)c2cccc3c(=O)c(C)c(C#N)oc23)CC1 [Example 11, 8-{3-[4-(5-Chloro-2-methoxyphenyl)-1-piperazinyl]propylcarbamoyl}-2-cyano-3-methyl-4-oxo-4H-1-benzopyran]",24.4,2.72,0.78,0.38,8.45
"Cc1c(-c2ccccc2)oc2c(C(=O)NCCCN3CCN(c4ccc(F)cc4OCC(F)(F)F)CC3)cccc2c1=O [Example 19, 8-<3-{4-[4-Fluoro-2-(2,2,2-trifluoroethoxy)phenyl]-1-piperazinyl}propylcarbamoyl>-3-methyl-4-oxo-2-phenyl-4H-1-benzopyran]",22.4,4.79,2.61,0.136,8.72
"COc1ccc(Cl)cc1N1CCN(CCCNC(=O)c2cccc3c(=O)c(C)c(NC(=O)OC(C)(C)C)oc23)CC1.O [Example 3, 2-(1,1-Dimethylethoxycarbonylamino)-8-{3-[4-(5-chloro-2-methoxyphenyl)-1-piperazinyl]propylcarbamoyl}-3-methyl-4-oxo-4H-1-benzopyran monohydrate]",81.9,0.45,0.32,0.2,8.43
"Cc1c(C(N)=O)oc2c(C(=O)NCCCN3CCN(c4cc(F)ccc4OCC(F)(F)F)CC3)cccc2c1=O [Example 8, 2-Carbamoyl-8-<3-{4-[5-fluoro-2-(2,2,2-trifluoroethoxy)phenyl]-1-piperazinyl}-propylcarbamoyl>-3-methyl-4-oxo-4H-1-benzopyran]",39.5,3.02,9.91,0.144,9
"COc1ccc(C(F)(F)F)cc1N1CCN(CCCNC(=O)c2cccc3c(=O)c(C)c(-c4ccccc4)oc23)CC1 [Example 17, 8-{3-[4-(2-Methoxy-5-trifluoromethylphenyl)-1-piperazinyl]propylcarbamoyl}-3-methyl-4-oxo-2-phenyl-4H-1-benzopyran]",–,13.1,9.42,1.6,8.03
"COc1ccc(Cl)cc1N1CCN(CCCNC(=O)c2cccc3c(=O)c(C)c(C(=O)N(C)C)oc23)CC1 [Example 6, 8-{3-[4-(5-Chloro-2-methoxyphenyl)-1-piperazinyl]propylcarbamoyl}-3-methyl-2-dimethylcarbamoyl-4-oxo-4H-1-benzopyran]",68.4,3.83,3.56,0.23,8.55
